Substitutions are numbered along the chain they refer to. Like-named read-outs stand apart in the source and are kept apart here.
Tests used:
Format in all cases: cell-based
[1] = target: T1, human URAT1 h-F449Y (Homo sapiens, UniProt Q96S37, F449Y); assay: URAT1 activity assay, h-F449Y
T1 construct: expressed in transfected cells; host or cells: HEK-293T
T1 sequence (Q96S37 1-553 F449Y): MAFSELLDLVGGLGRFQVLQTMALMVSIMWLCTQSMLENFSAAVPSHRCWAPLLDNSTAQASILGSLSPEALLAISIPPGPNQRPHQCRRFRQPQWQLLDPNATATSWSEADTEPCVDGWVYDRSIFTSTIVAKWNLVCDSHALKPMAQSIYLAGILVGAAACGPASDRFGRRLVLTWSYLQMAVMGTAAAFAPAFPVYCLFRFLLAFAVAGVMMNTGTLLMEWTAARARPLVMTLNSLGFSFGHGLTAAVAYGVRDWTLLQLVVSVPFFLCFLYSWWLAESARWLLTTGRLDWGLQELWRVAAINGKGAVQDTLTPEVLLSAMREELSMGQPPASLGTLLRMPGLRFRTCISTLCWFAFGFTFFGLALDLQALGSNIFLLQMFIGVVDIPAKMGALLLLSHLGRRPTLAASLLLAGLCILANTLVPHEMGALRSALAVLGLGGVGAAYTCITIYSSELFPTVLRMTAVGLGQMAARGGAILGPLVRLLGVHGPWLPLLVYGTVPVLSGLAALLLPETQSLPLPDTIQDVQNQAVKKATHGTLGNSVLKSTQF
Description: (§1) Human URAT1 (GenBank BC053348.1, Homo sapiens SLC22A12), rat URAT1 (NCBI NM_001034943.1, Rattus norvegicus Slc22a12) and human OAT4 (NCBI NM_018484.2, Homo sapiens SLC22A11) genes were purchased from Origene Technologies, Inc. and subcloned into pCMV6/neo using NotI. Where indicated, controls transfections used pCMV6/neo. Mutants were produced by site-directed mutagenesis using the QuikChange Lightning Multi Site-Directed Mutagenesis Kit (Agilent Technologies). […] Mutagenic primer sequences are provided in ref. [15] and mutagenic primer sequences for previously unreported mutants shown in Supplementary Table 1. All constructs used in this study were untagged. Human OAT1 was purchased from Fisher Scientific (catalog # MHS1010–7508183 in pSPORT6, NCBI NM_153276.2, Homo sapiens SLC22A6).
(§2) HEK-293T cells were maintained in DMEM/high glucose/L-glutamine/HEPES supplemented with 1 mM sodium pyruvate (Life Technologies) and 10% FBS (PAA Laboratories) at 37 °C in 5% CO2. To express URAT1, OAT4 or OAT1, plasmids were reverse transfected into HEK-293T cells. DNA (10 µg) was mixed with 30 µl of DreamFect Gold (Boca Scientific) in 2 ml OptiMem (Life Technologies). After 20 minutes, 18 ml of media containing 2 × 10^7 cells in suspension was added and mixed, and 200 µl per well were plated onto white clear-bottomed poly-D-lysine coated 96-well plates (BD Biosciences). The cells were assayed the following day.
(§3) URAT1 and OAT4 activity assays were performed in assay buffer consisting of 25 mM MES pH 5.5 (from a 1 M MES solution [Sigma] adjusted to pH 5.5 with sodium hydroxide), 125 mM sodium gluconate, 4.8 mM potassium gluconate, 1.2 mM monobasic potassium phosphate, 1.2 mM magnesium sulfate, 1.3 mM calcium gluconate and 5.6 mM glucose. URAT1 inhibitors were serially diluted into assay buffer and added to the cells for 5 minutes prior to addition of substrate. URAT1-expressing cells were incubated with 100 µM ^14C-uric acid for 10 minutes and OAT4-expressing cells were incubated with 20 µM carboxyfluorescein (Life Technologies, Inc.) for 5 minutes. Cells were then washed three times in 25 mM MES pH 5.5/125 mM sodium gluconate, and solubilized in Ultima Gold (Perkin Elmer) prior to liquid scintillation counting. Each treatment was measured in triplicate.

[2] = target: T2, human URAT1 h-V18L (Homo sapiens, UniProt Q96S37, V18L); assay: URAT1 activity assay, h-V18L; settings: TM1 point mutant, read-out: Verinurad affinity (IC50)
T2 construct: expressed in transfected cells; host or cells: HEK-293T
T2 sequence (Q96S37 whole entry V18L): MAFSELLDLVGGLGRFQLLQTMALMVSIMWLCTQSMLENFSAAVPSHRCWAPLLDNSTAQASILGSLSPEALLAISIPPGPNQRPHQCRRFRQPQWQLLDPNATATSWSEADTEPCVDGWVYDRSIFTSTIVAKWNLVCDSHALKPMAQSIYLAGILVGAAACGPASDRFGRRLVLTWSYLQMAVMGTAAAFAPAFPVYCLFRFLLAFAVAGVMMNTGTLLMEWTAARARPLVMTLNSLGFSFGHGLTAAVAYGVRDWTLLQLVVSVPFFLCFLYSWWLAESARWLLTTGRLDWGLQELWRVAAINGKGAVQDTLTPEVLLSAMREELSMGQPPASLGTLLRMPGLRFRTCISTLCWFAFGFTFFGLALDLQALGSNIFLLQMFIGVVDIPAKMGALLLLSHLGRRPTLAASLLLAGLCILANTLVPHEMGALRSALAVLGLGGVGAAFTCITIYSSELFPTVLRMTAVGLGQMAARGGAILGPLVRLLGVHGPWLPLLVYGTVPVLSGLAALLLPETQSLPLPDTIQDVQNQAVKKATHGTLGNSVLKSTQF
Description: as §1
(§4) HEK-293T cells were maintained in DMEM/high glucose/L-glutamine/HEPES supplemented with 1 mM sodium pyruvate (Life Technologies) and 10% FBS (PAA Laboratories) at 37 °C in 5% CO2. […]
(§5) URAT1 and OAT4 activity assays were performed in assay buffer consisting of 25 mM MES pH 5.5 (from a 1 M MES solution [Sigma] adjusted to pH 5.5 with sodium hydroxide), 125 mM sodium gluconate, 4.8 mM potassium gluconate, 1.2 mM monobasic potassium phosphate, 1.2 mM magnesium sulfate, 1.3 mM calcium gluconate and 5.6 mM glucose. […] Each treatment was measured in triplicate.

[3] = target: T3, human URAT1 (Homo sapiens, UniProt Q96S37); assay: URAT1 activity assay (14C-uric acid transport), human URAT1; parameters: host or cells: HEK-293T
T3 sequence (Q96S37 1-553): T1 sequence (Q96S37 1-553 F449Y) with Y449F
Method: as §2, §3

[4] = target: T4, human URAT1 h-S35N (Homo sapiens, UniProt Q96S37, S35N); assay: URAT1 activity assay, h-S35N
T4 construct: expressed in transfected cells; host or cells: HEK-293T
T4 sequence (Q96S37 whole entry S35N): as the sequence (Q96S37 whole entry V18L) above, with L18V, S35N counted along it
Description: as §1, §4, §5

Compound: CC(C)(Sc1ccncc1-c1ccc(C#N)c2ccccc12)C(=O)O [Verinurad, 2-((3-(4-cyanonaphthalen-1-yl)pyrindin-4-yl)thio)-2-methylpropanoic acid]
- fold reduced affinity compared to human URAT1 ([1]; h-F449Y): the same affinity
- IC50 ([1]; h-F449Y binding site point mutant): 0.025 µM
- IC50 [2]: 0.026 ± 0.015 µM
- fold potency for URAT1 compared to other transporters ([3]; URAT1 vs other transporters): greater than 100 fold
- IC50 ([3]; human URAT1 wild type in HEK-293T, 100 µM 14C-uric acid, pH 5.5, read-out: IC50, inhibition of transport activity): 0.025 ± 0.0036 µM
- IC50 ([3]; human URAT1 wild type, read-out: IC50, inhibition of transport activity of human URAT1): 0.025 µM
- fold lower affinity relative to human URAT1 [4]: 14 fold
- IC50 ([4]; TM1 point mutant, read-out: Verinurad affinity (IC50)): 0.36 ± 0.15 µM

— publication PMC5429603, “Discovery and characterization of verinurad, a potent and specific inhibitor of URAT1 for the treatment of hyperuricemia and gout” (Scientific Reports, 2017)
